Experimental data published in US12522594B2, “2-heteroaryl-3-oxo-2,3-dihydropyridazine-4-carboxamides for the treatment of cancer” (Deutsches Krebsforschungszentrum, priority 2017, dated 2026).

Experiments:
[1] = molecular target: T1, AHR (Homo sapiens, UniProt P35869); test: In vitro assay 2: agonism in human cell line (transactivation assay, U87 cells, DRE firefly luciferase reporter); type: cell-based; set-up: host or cells: U87 glioblastoma cells, stably transfected with DRE firefly luciferase and renilla reporter constructs; settings: no kynurenic acid, 20 hours, read-out: Assay 2: AHR-luc Hum Agonism IC50
T1 sequence (P35869 11-848): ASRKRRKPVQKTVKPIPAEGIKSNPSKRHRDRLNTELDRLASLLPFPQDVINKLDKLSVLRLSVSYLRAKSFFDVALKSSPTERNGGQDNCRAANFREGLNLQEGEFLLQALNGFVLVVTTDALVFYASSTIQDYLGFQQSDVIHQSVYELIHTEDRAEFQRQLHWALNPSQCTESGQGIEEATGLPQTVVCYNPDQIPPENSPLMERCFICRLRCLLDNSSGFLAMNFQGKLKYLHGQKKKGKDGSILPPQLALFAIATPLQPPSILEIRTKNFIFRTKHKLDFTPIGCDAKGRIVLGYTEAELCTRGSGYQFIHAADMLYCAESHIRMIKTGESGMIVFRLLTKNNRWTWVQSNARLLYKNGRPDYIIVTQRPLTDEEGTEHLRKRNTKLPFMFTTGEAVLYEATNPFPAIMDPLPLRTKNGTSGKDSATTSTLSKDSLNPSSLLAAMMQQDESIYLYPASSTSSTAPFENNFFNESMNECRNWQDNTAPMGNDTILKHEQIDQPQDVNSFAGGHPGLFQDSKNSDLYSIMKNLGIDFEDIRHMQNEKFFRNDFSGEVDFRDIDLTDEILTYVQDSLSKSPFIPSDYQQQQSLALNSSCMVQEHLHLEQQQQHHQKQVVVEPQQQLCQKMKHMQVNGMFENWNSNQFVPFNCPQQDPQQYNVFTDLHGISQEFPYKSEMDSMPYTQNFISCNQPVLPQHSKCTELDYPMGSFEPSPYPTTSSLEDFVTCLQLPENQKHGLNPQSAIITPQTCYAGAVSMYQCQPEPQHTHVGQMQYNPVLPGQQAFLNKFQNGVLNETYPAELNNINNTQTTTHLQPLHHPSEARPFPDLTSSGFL
Procedure: (§1) Transactivation Assay in Human Cell Line (In Vitro Assays 1 and 2)
(§2) Transactivation assays were carried out in U87 glioblastoma cells (ATCC) endogenously expressing AHR. In addition the cells were stably transfected with an AHR inducible firefly luciferase reporter gene construct that carried AHR-binding sites (DRE) in its promoter and a renilla reporter gene construct with constitutively active promoter. Kynurenic acid is an endogenous AHR activating ligand and was used to prestimulate test cells prior to testing the antagonistic properties of compounds.
In Vitro Assay 2: Agonism in Human Cell Line
As positive activation control cells were incubated with 300 uM kynurenic acid. Normalization was done by positive and negative controls.

[2] = molecular target: T1, AHR; test: In vitro assay 1: antagonism in human cell line (transactivation assay, U87 cells prestimulated with kynurenic acid, DRE firefly luciferase reporter); type: cell-based; set-up: host or cells: U87 glioblastoma cells, stably transfected with DRE firefly luciferase and renilla reporter constructs; settings: 150 uM kynurenic acid, 20 hours, read-out: Assay 1: AHR-luc Hum Antagonism IC50
Procedure: as §1, §2
In Vitro Assay 1: Antagonism in Human Cell Line
Normalization was done by positive and negative controls.

IC50 [1]	IC50 [2]	SMILES
> 20000 nM	23 nM	Cn1cc(-n2nc(-c3ccc(Cl)cc3)cc(C(=O)N[C@@H]3COC[C@@H]3O)c2=O)cn1 (racemic) [Example 43, 6-(4-Chlorophenyl)-N-[(cis)-4-hydroxytetrahydrofuran-3-yl]-2-(1-methyl-1H-pyrazol-4-yl)-3-oxo-2,3-dihydropyridazine-4-carboxamide]
> 20000 nM	12.3 nM	O=C(N[C@@H]1COC[C@@H]1O)c1cc(-c2ccc(C(F)(F)F)cc2)nn(-c2cccnc2)c1=O (racemic) [Example 107, N-[(3RS,4RS)-4-Hydroxytetrahydrofuran-3-yl]-3-oxo-2-(pyridin-3-yl)-6-[4-(trifluoromethyl)phenyl]-2,3-dihydropyridazine-4-carboxamide]
> 20000 nM	79.2 nM	O=C(N[C@H]1COC[C@@H]1O)c1cc(-c2ccc(OC(F)(F)F)cc2)nn(-c2cccnc2)c1=O (racemic) [Example 160, N-[(trans)-4-Hydroxytetrahydrofuran-3-yl]-3-oxo-2-(pyridin-3-yl)-6-[4-(trifluoromethoxy)phenyl]-2,3-dihydropyridazine-4-carboxamide]
> 20000 nM	58.4 nM	O=C(N[C@H]1COC[C@H]1O)c1cc(-c2ccc(Cl)cc2)nn(-c2cccnc2)c1=O (racemic) [Example 171, rac-6-(4-chlorophenyl)-N-[(cis)-4-hydroxytetrahydrofuran-3-yl]-3-oxo-2-(pyridin-3-yl)-2,3-dihydropyridazine-4-carboxamide]
> 20000 nM	7.52 nM	O=C(N[C@@H]1CCCC[C@@H]1O)c1cc(-c2ccc(Cl)cc2)nn(-c2cccnc2)c1=O (relative stereo) [Example 133, 6-(4-Chlorophenyl)-N-[(cis)-2-hydroxycyclohexyl]-3-oxo-2-(pyridin-3-yl)-2,3-dihydropyridazine-4-carboxamide]
–	240 nM	O=C(N[C@H]1COC[C@@H]1O)c1cc(-c2ccc(Cl)cc2)nn(-c2cccnc2)c1=O (relative stereo) [Example 168, 6-(4-Chlorophenyl)-N-[(trans)-4-hydroxytetrahydrofuran-3-yl]-3-oxo-2-(pyridin-3-yl)-2,3-dihydropyridazine-4-carboxamide]
–	18 nM	O=C(N[C@@H]1COC[C@@H]1O)c1cc(-c2ccc(C(F)(F)F)cc2)nn(-c2cccnc2)c1=O (single isomer, unassigned) [Example 252, (−)-N-cis-4-Hydroxytetra-hydrofuran-3-yl-3-oxo-2-(pyridin-3-yl)-6-[4-(trifluoromethyl)phenyl]-2,3-dihydropyridazine-4-carboxamide]

The remaining lines, values behind:

SMILES	IC50 [1]	IC50 [2]
Cn1cc(-n2nc(-c3ccc(Cl)cc3)cc(C(=O)NC(CO)C(F)(F)F)c2=O)cn1 (racemic) [Example 33, 6-(4-Chlorophenyl)-2-(1-methyl-1H-pyrazol-4-yl)-3-oxo-N-[(2RS)-1,1,1-trifluoro-3-hydroxypropan-2-yl]-2,3-dihydropyridazine-4-carboxamide]	> 20000 nM	2.66 nM
Cn1cc(-n2nc(-c3ccc(OC(F)(F)F)cc3)cc(C(=O)N[C@@H]3COC[C@@H]3O)c2=O)cn1 (racemic) [Example 55, N-[(cis)-4-Hydroxytetrahydrofuran-3-yl]-2-(1-methyl-1H-pyrazol-4-yl)-3-oxo-6-[4-(trifluoromethoxy)phenyl]-2,3-dihydropyridazine-4-carboxamide]	> 20000 nM	17.9 nM
Cn1cc(-n2nc(-c3ccc(OC(F)(F)F)cc3)cc(C(=O)N[C@@H]3COC[C@H]3O)c2=O)cn1 (racemic) [Example 63, N-[(trans)-4-Hydroxytetrahydrofuran-3-yl]-2-(1-methyl-1H-pyrazol-4-yl)-3-oxo-6-[4-(trifluoromethoxy)phenyl]-2,3-dihydropyridazine-4-carboxamide]	> 20000 nM	81 nM
O=C(NC(CO)C1CC1)c1cc(-c2ccc(Cl)cc2)nn(-c2cncc(F)c2)c1=O (racemic) [Example 97, 6-(4-Chlorophenyl)-N-[(1RS)-1-cyclopropyl-2-hydroxyethyl]-2-(5-fluoropyridin-3-yl)-3-oxo-2,3-dihydropyridazine-4-carboxamide]	> 20000 nM	7.06 nM
O=C(NCC(O)C(F)F)c1cc(-c2ccc(C(F)(F)F)cc2)nn(-c2cccnc2)c1=O (racemic) [Example 101, N-[(2RS)-3,3-Difluoro-2-hydroxypropyl]-3-oxo-2-(pyridin-3-yl)-6-[4-(trifluoromethyl)phenyl]-2,3-dihydropyridazine-4-carboxamide]	> 20000 nM	9.54 nM
O=C(NCC(O)C(F)(F)F)c1cc(-c2ccc(C(F)(F)F)cc2)nn(-c2cccnc2)c1=O (racemic) [Example 108, 3-Oxo-2-(pyridin-3-yl)-N-[(2RS)-3,3,3-trifluoro-2-hydroxypropyl]-6-[4-(trifluoromethyl)phenyl]-2,3-dihydropyridazine-4-carboxamide]	> 20000 nM	–
O=C(NC(CO)C1CC1)c1cc(-c2ccc(C(F)(F)F)cc2)nn(-c2cccnc2)c1=O (racemic) [Example 109, N-[(1RS)-1-Cyclopropyl-2-hydroxyethyl]-3-oxo-2-(pyridin-3-yl)-6-[4-(trifluoromethyl)phenyl]-2,3-dihydropyridazine-4-carboxamide]	> 20000 nM	1.63 nM
O=C(N[C@H]1CCCC(F)(F)[C@@H]1O)c1cc(-c2ccc(Cl)cc2)nn(-c2cccnc2)c1=O (racemic) [Example 143, 6-(4-Chlorophenyl)-N-[(trans)-3,3-difluoro-2-hydroxycyclohexyl]-3-oxo-2-(pyridin-3-yl)-2,3-dihydropyridazine-4-carboxamide]	> 20000 nM	9.61 nM
Cn1cc(-n2nc(-c3ccc(Cl)cc3)cc(C(=O)N[C@H]3CCC[C@@H]3O)c2=O)cn1 (relative stereo) [Example 51, 6-(4-Chlorophenyl)-N-[(trans)-2-hydroxycyclopentyl]-2-(1-methyl-1H-pyrazol-4-yl)-3-oxo-2,3-dihydropyridazine-4-carboxamide]	> 20000 nM	9.54 nM
Cn1cc(-n2nc(-c3ccc(C(F)F)cc3)cc(C(=O)N[C@H]3CCC[C@@H]3O)c2=O)cn1 (relative stereo) [Example 52, 6-[4-(Difluoromethyl)phenyl]-N-[(trans)-2-hydroxycyclopentyl]-2-(1-methyl-1H-pyrazol-4-yl)-3-oxo-2,3-dihydropyridazine-4-carboxamide]	> 20000 nM	11.5 nM
Cn1cc(-n2nc(-c3ccc(C(F)F)cc3)cc(C(=O)N[C@@H]3COC[C@@H]3O)c2=O)cn1 (relative stereo) [Example 60, 6-[4-(Difluoromethyl)phenyl]-N-[(cis)-4-hydroxytetrahydrofuran-3-yl]-2-(1-methyl-1H-pyrazol-4-yl)-3-oxo-2,3-dihydropyridazine-4-carboxamide]	> 20000 nM	21.8 nM
CC(NC(=O)c1cc(-c2ccc(Cl)cc2)nn(-c2cccnc2)c1=O)C(O)C(F)(F)F (single isomer, unassigned) [Example 300, 6-(4-Chlorophenyl)-3-oxo-2-(pyridin-3-yl)-N-(4,4,4-trifluoro-3-hydroxybutan-2-yl)-2,3-dihydropyridazine-4-carboxamide]	> 20000 nM	–
O=C(N[C@H]1CCCC[C@H]1O)c1cc(-c2ccc(C(F)(F)F)cc2)nn(-c2cccnc2)c1=O [Example 106, N-[(1S,2R)-2-Hydroxycyclohexyl]-3-oxo-2-(pyridin-3-yl)-6-[4-(trifluoromethyl)phenyl]-2,3-dihydropyridazine-4-carboxamide]	> 20000 nM	–
O=C(NC[C@H](O)C(F)(F)F)c1cc(-c2ccc(C(F)(F)F)cc2)nn(-c2cccnc2)c1=O [Example 117, 3-Oxo-2-(pyridin-3-yl)-N-[(2S)-3,3,3-trifluoro-2-hydroxypropyl]-6-[4-(trifluoromethyl)phenyl]-2,3-dihydropyridazine-4-carboxamide]	> 20000 nM	–
C[C@@H](CO)NC(=O)c1cc(-c2ccc(C(F)(F)F)nc2)nn(-c2cccnc2)c1=O [Example 166, N-[(2S)-1-Hydroxypropan-2-yl]-3-oxo-2-(pyridin-3-yl)-6-[6-(trifluoromethyl)pyridin-3-yl]-2,3-dihydropyridazine-4-carboxamide]	–	180 nM
